For one series, the system named is P. falciparum strain D6. As to the kind of experiment: [3H]-hypoxanthine growth inhibition assay, P. falciparum D6. In kind it is cell-based. Particulars: Plasmodium falciparum; P. falciparum D6 (sensitive to chloroquine and pyrimethamine), [3H]-hypoxanthine incorporation; read-out: D6 IC50. A digest of the protocol:
(§1)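 Parasites cultured in human O Rh+ RBCs in RPMI-1640-LPLF (low PABA and folic acid) with 10% human plasma, pH 6.9, 37° C, 5% O2/5% CO2/90% N2. Sorbitol-synchronised ring-stage cultures started at 1% parasitaemia; growth measured as [3H]-hypoxanthine incorporation in hypoxanthine-free medium. Compound stocks 1 mM in DMSO.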

A further series deals with P. falciparum strain W2. As to the kind of experiment: [3H]-hypoxanthine growth inhibition assay, P. falciparum W2. In kind it is cell-based. Particulars: Plasmodium falciparum; P. falciparum W2 (resistant to chloroquine and pyrimethamine), [3H]-hypoxanthine incorporation; read-out: W2 IC50. The method in brief:
as §1

The nature of series [1]: Solubility in hERG test solution (HB-PS + 0.3% DMSO). In kind it is physicochemical. Particulars: 30 μM nominal concentration. As to the method: All chemicals used in solution preparation were purchased from Sigma-Aldrich (St. Louis, Mo.) unless otherwise noted and were of ACS reagent grade purity or higher. Stock solutions of the test article and the positive control were prepared in dimethyl sulfoxide (DMSO) and stored frozen. Test article and positive control concentrations were prepared fresh daily by diluting stock solutions into a HEPES-buffered physiological saline (HB-PS) solution (composition in mM): NaCl, 137; KCl, 4.0; CaCl2, 1.8; MgCl2, 1; HEPES, 10; Glucose, 10; pH adjusted to 7.4 with NaOH (prepared weekly and refrigerated until use).
Experiments were performed as outlined in the section entitled Experimental Procedures. Concentrations were selected to evaluate the concentration-response relationship of each test article based on the initial results or the solubility limits in vehicle. Each concentration was tested in at least three cells (n≧3).
Each test article at 10 μM was applied to at least 3 cells (n≧3).

pIC50: −log10 of the molar value.

As to `CC(C)(C)NCc1cc(C(C)(C)C)cc(-c2ccc(C(F)(F)F)nc2)c1O.Cl` [Example 1, 4-(tert-Butyl)-2-((tert-butylamino)methyl)-6-(6-(trifluoromethyl)pyridin-3-yl)phenol hydrochloride], the pIC50 was 7.89 in the series with P. falciparum strain D6 and 8.40 in the series with P. falciparum strain W2.

On to `CC(C)(C)NCc1cc(C(C)(C)C)cc(-c2cnc(C(F)(F)F)nc2)c1O.Cl` [Example 33, 4-(tert-Butyl)-2-((tert-butylamino)methyl)-6-(2-(trifluoromethyl)pyrimidin-5-yl)phenol hydrochloride], for which, in series [1], the “Solubility in hERG test solution” value was “not in solution”. The results for the pIC50 in the series on P. falciparum strain D6 and in the series on P. falciparum strain W2 were 8.00 and 8.52, respectively.

Turning to `CC(C)(C)NCc1cc(C(C)(C)C)cc(-c2cnc(C(F)(F)F)c(F)c2)c1O.Cl` [Example 34, 4-(tert-Butyl)-2-((tert-butylamino)methyl)-6-(5-fluoro-6-(trifluoromethyl)pyridin-3-yl)phenol hydrochloride], in series [1], the “Solubility in hERG test solution” value was “not in solution”. In addition, the negative logarithm of the IC50 (pIC50) with P. falciparum strain D6 is 8.10; in the series on P. falciparum strain W2, 8.70.

Source of the values: patent US9409893B2, “Heteroaryl derivatives and uses thereof” (Jacobus Pharmaceutical Company, Inc., priority 2012, dated 2016).
